{"source": "paper PMC12406652", "about": "(Antimicrobial Agents and Chemotherapy, 2025)", "system": "healthy participants", "experiment": "Safety and tolerability (treatment-emergent adverse events), studies VNRX-7145-101 and VNRX-7145-102", "type": "in vivo, human", "experimental": "Safety was assessed via ongoing monitoring of adverse events, symptom-directed physical examinations, and changes in clinical laboratory measures, vital signs, and ECGs."}
{"smiles": "CCC(=O)N[C@H]1Cc2cccc(C(=O)OCOC(=O)C(CC)CC)c2OB1O", "note": "[Ledaborbactam etzadroxil]", "values": [{"measurement": "Participants with fatigue (TEAE)", "setting": "LED-E-dosed participants", "value": 9.2, "unit": "%"}, {"measurement": "Participants with headache (TEAE)", "setting": "LED-E-dosed participants", "value": 20.2, "unit": "%"}, {"measurement": "Tolerability", "setting": "all dose levels, alone or in combination with CTB", "value": "well tolerated"}, {"measurement": "Participants with gastrointestinal TEAEs", "setting": "n = 109, pooled studies, all mild", "value": 27.5, "unit": "%"}, {"measurement": "Serious or severe TEAEs", "setting": "single or multiple doses, alone or with CTB", "value": "no serious or severe TEAEs"}]}
